Assay results published in PMC5433008 (BMC Neuroscience, 2017).
Where a SMILES comes first, the peptide text is derived from it.

What was measured:
[1] = tested on: GluN1a–GluN2B; type: cell-based
[2] = tested on: GluN1a–GluN2A; type: cell-based
[3] = tested on: recombinant NMDAr comprised of either GluN1a–GluN2A or GluN1a–GluN2B subunits; type: cell-based
[4] = tested on: NMDA-evoked currents in cultured rat embryonic hippocampal neurons (NMDAr); details: for IC50: pH 7.4

| SMILES | block of NMDA-evoked currents, GluN1a–GluN2B [1] [%] | block of NMDA-evoked currents, GluN1a–GluN2A [2] [%] | difference between control-NMDA and wash-NMDA (reversibility) [3] | off rate (from short-lived current increase on simultaneous removal of NMDA + peptide) [3] | reversibility, recombinant NMDAr versus neuronal NMDAr [3] | dose dependence of inhibition [4] | off rate (from transient current increase on simultaneous removal of NMDA + peptide) [4] | reversibility of block [4] | use-dependence of block [4] | IC50 [4] [µM] |
| --- | --- | --- | --- | --- | --- | --- | --- | --- | --- | --- |
| CC[C@H](C)[C@H](NC(=O)[C@H](CC(C)C)NC(=O)[C@H](CC(=O)O)NC(=O)[C@H](CCC(N)=O)NC(=O)[C@H](CC(N)=O)NC(=O)[C@H](CC(=O)O)NC(=O)[C@H](CCC(N)=O)NC(=O)[C@H](CC(C)C)NC(=O)[C@H](CC(=O)O)NC(=O)[C@H](CC(=O)O)NC(=O)[C@H](CCC(=O)O)NC(=O)CN)C(=O)N[C@@H](CCCNC(=N)N)C(=O)N[C@@H](CC(=O)O)C(=O)N[C@@H](CCCCN)C(=O)N[C@@H](CO)C(=O)N[C@@H](CC(N)=O)C(=O)O [EAR16] (H-GEDDLQDNQDLIRDKSN-OH) | 84 | 50 | No significant difference | fast enough that would allow binding of NMDA early on during washout | faster from the recombinant NMDAr than from NMDAr expressed in neuronal cells | dose-dependent | fast enough that would allow binding of NMDA early on during washout | highly reversible | no clear use-dependence | 241 |
| CC[C@H](C)[C@H](NC(=O)[C@H](CC(C)C)NC(=O)[C@H](CC(=O)O)NC(=O)[C@H](CCC(N)=O)NC(=O)[C@H](C)NC(=O)[C@H](CC(=O)O)NC(=O)[C@H](CCC(N)=O)NC(=O)[C@H](Cc1ccc(O)cc1)NC(=O)[C@H](CC(=O)O)NC(=O)[C@H](CC(=O)O)NC(=O)[C@H](CCC(=O)O)NC(=O)CN)C(=O)N[C@@H](CCCNC(=N)N)C(=O)N[C@@H](CC(=O)O)C(=O)N[C@@H](CCCCN)C(=O)N[C@@H](CO)C(=O)N[C@@H](CC(N)=O)C(=O)O [EAR18] (H-GEDDYQDAQDLIRDKSN-OH) | – | – | – | – | – | – | – | – | – | 176 |
